Reference: USRE43029E1, “Process for preparing a creatine heterocyclic acid salt and method of use” (Bio-Engineered Supplements & Nutrition, Inc., priority 2003, dated 2011)

Assays:
[1] = cited from earlier work
[2] = cited from earlier work; remark: listed apart in the source
[3] = in vivo; cited from earlier work
[4] = TriCreatine Orotate method of use, 4 weeks post-workout oral supplementation; format: in vivo, human; conditions: weight trained person, 5 grams orally post workout, end of 4 week period
Text: In this example a experienced weight trained person orally consumes 5 grams of tricreatine orotate post workout for 4 weeks with beverage. Glucose or any insulin potentiating compound may added for even greater results. In this instance the tricreatine orotate is incorporated into free powder mixture of flavoring agents and D-glucose, which is then combined with water. Once in the plasma tricreatine orotate then exerts a synergistic lean tissue promoting effect due to the anabolic actions of creatine and orotic acid. The creatine enhances phophocreatine resynthesis and attracts water to intercellular component of the muscle cell, which in turn activates protein synthesis while the orotic acid promotes uridine phosphates and glycogen synthesis. The previously mentioned physiological functions lead to increases in lean body mass, strength, endurance, recovery and loss of fat tissue. At the end of the 4 week period the individual reported a 6 pound weight gain, a 20 pound increase in […] 1 repetition maximum bench press, and a 5 repetition increase in […] initial 70 percent maximum bench press. These increases contribute to the regulation of athletic function and thus lead to enhanced physical performance.

[5] = four 5 gram per day; 30 second bouts of maximal isokinetic cycling; cited from earlier work
[6] = 20 grams a day for 5 days; five of the eight subjects; cited from earlier work

CN(CC(=O)O)C(=N)N.O [creatine monohydrate]
rise in plasma creatine concentration ([1]; 1 gram dose): only a modest rise | time of mean peak plasma creatine ([1]; 5 gram dose): 1 h | total creatine content of the quadriceps ([2]; 5 grams four to six times a day for 2 or more days): significant increase | creatine uptake ([2]; first two days of supplementation, six 5 gram doses): 32% | creatine taken up measured as phosphocreatine (PCr) ([2]; in vivo): ≥ 20%

O=C(O)c1cc(=O)[nH]c(=O)[nH]1 [orotic acid, 1,2,3,6-Tetrahydro-2,6-dioxo-4-pyrimidecarboxylic acid]
growth and functional maturation of animals [3]: significant acceleration

Tricreatine orotate
increase in 1 repetition maximum bench press [4]: 20 pound | increase in initial 70 percent maximum bench press [4]: 5 repetition | weight gain [4]: 6 pound

CN(CC(=O)O)C(=N)N [creatine]
peak power output and mean power output [5]: significantly increased | muscle total creatine concentration and phosphocreatine resynthesis [6]: substantially increased
